Measured values published in patent US9540323B2 (BRISTOL-MYERS SQUIBB COMPANY, priority 2012, dated 2017).

Columns and labels:
[1] = biological target: cloned human P2Y1 receptors (Homo sapiens (Human), UniProt P47900); experiment: Binding Assay B - Scintillation Proximity Assay (SPA) for P2Y1 binding, [33P] 2MeS-ADP; conditions: SPA, 0.3 nM [33P] 2MeS-ADP, Cheng-Prusoff; read-out: P2Y1 Ki (nM) using binding assay B
Procedure: Binding Assay B—Scintillation Proximity Assay (SPA) for P2Y1 Binding
A SPA membrane binding assay was used to identify inhibitors of [^33P] […] Reactions were allowed to proceed to completion at room temperature for 1 hour followed by centrifugation of the plate for 5 min. About 40 μL of the aqueous solution was aspirated. Plates were sealed and the [^33P]

[2] = tested on: human platelet rich plasma (PRP); experiment: ADP induced platelet aggregation assay; conditions: Homo sapiens, Platelet, 5 min, read-out: PA IC50 (μM) @ 10 μM ADP, human PRP, 10 μM ADP, AUC at 5 minute

Chain of cloned human P2Y1 receptors (P47900 whole entry): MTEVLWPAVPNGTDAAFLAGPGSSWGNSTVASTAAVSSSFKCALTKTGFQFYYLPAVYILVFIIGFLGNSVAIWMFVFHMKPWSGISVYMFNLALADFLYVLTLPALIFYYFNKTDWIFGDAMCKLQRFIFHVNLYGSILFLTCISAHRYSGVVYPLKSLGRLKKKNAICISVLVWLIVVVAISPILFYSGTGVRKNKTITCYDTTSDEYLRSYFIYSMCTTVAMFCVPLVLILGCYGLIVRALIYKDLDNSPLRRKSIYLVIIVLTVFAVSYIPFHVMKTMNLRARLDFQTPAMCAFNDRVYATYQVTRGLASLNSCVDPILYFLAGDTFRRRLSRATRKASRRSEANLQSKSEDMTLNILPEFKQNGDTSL

Question: `COC(=O)c1ccc(O)c2c1C(C)(C)CN2c1ccccc1NC(=O)Nc1ccc(OC(F)(F)F)cc1` [Example 80, Methyl 7-hydroxy-3,3-dimethyl-1-(2-(3-(4-(trifluoromethoxy)phenyl)ureido)phenyl)indoline-4-carboxylate] was tested. Which Ki [1] did it give?
Answer: 9 nM

Question: And the IC50 [2]?
Answer: 0.84 µM

Question: Which results are given for `CCOC(=O)c1ccc(O)c2c1C(C)(C)CN2c1ccccc1NC(=O)Nc1ccc(OC(F)(F)F)cc1` [Example 81, Ethyl 7-hydroxy-3,3-dimethyl-1-(2-(3-(4-(trifluoromethoxy)-phenyl)-ureido)phenyl)indoline-4-carboxylate]?
Answer: Ki [1]: 8.6 nM; IC50 [2]: 0.91 µM

Question: What does the source list for `CC1(C)CN(c2ccccc2NC(=O)Nc2ccc(OC(F)(F)F)cc2)c2c(O)ccc(-c3nc4ccccc4o3)c21` [Example 82, 1-(2-(4-(Benzo[d]oxazol-2-yl)-7-hydroxy-3,3-dimethylindolin-1-yl)phenyl)-3-(4-(trifluoromethoxy)phenyl)urea]?
Answer: Ki [1]: 15.8 nM; IC50 [2]: 0.99 µM

Question: For `CC1(C)CN(c2ccccc2NC(=O)Nc2ccc(OC(F)(F)F)cc2)c2c(O)ccc(-c3nc4ccccc4s3)c21` [Example 83], which Ki [1] is on record?
Answer: 14.7 nM

Question: And the IC50 [2]?
Answer: 0.86 µM

Question: Which results are given for `CC1(C)CN(c2ccccc2NC(=O)Nc2ccc(OC(F)(F)F)cc2)c2c(O)ccc(-c3nc4cc(Cl)ccc4o3)c21` [Example 84, 1-(2-(4-(5-Chlorobenzo[d]oxazol-2-yl)-7-hydroxy-3,3-dimethylindolin-1-yl)phenyl)-3-(4-(trifluoromethoxy)phenyl)urea]?
Answer: Ki [1]: 16.7 nM; IC50 [2]: 0.58 µM

Question: What does the source list for `CC1(C)CN(c2ccccc2NC(=O)Nc2ccc(OC(F)(F)F)cc2)c2c(O)ccc(-c3nc4cc(Cl)ccc4s3)c21` [Example 85, 1-(2-(4-(5-Chlorobenzo[d]thiazol-2-yl)-7-hydroxy-3,3-dimethylindolin-1-yl)phenyl)-3-(4-(trifluoromethoxy)phenyl)urea]?
Answer: Ki [1]: 23.5 nM; IC50 [2]: 0.38 µM

Question: For `Cc1nnc(-c2ccc(O)c3c2C(C)(C)CN3c2ccccc2NC(=O)Nc2ccc(OC(F)(F)F)cc2)o1` [Example 86, 1-(2-(7-Hydroxy-3,3-dimethyl-4-(5-methyl-1,3,4-oxadiazol-2-yl)indolin-1-yl)phenyl)-3-(4-(trifluoromethoxy)phenyl)urea], which Ki [1] is on record?
Answer: 22.2 nM

Question: What about the IC50 [2] of the same compound?
Answer: 5 µM

Question: `CC1(C)CN(c2ccccc2NC(=O)Nc2ccc(OC(F)(F)F)cc2)c2c(O)ccc(-c3nc4cc(C(F)(F)F)ccc4s3)c21` [Example 87] was tested. Which Ki [1] did it give?
Answer: 42.9 nM

Question: What about the IC50 [2] of the same compound?
Answer: 0.27 µM

Question: For `Cn1c(-c2ccc(O)c3c2C(C)(C)CN3c2ccccc2NC(=O)Nc2ccc(OC(F)(F)F)cc2)nc2ccccc21` [Example 88, 1-(2-(7-Hydroxy-3,3-dimethyl-4-(1-methyl-1H-benzo[d]imidazol-2-yl)indolin-1-yl)phenyl)-3-(4-(trifluoromethoxy)phenyl)urea], which Ki [1] is on record?
Answer: 39.7 nM

Question: And the IC50 [2]?
Answer: 4.15 µM

Question: With `CC1(C)CN(c2ccccc2NC(=O)Nc2ccc(OC(F)(F)F)cc2)c2c(O)ccc(-c3nc4cccnc4o3)c21` [Example 89, 1-(2-(7-Hydroxy-3,3-dimethyl-4-(oxazolo[5,4-b]pyridin-2-yl)indolin-1-yl)phenyl)-3-(4-(trifluoromethoxy)phenyl)urea] as the compound, how does the Ki [1] read?
Answer: 12.3 nM

Question: What about the IC50 [2] of the same compound?
Answer: 0.99 µM

Question: What does the source list for `Cc1cccc2oc(-c3ccc(O)c4c3C(C)(C)CN4c3ccccc3NC(=O)Nc3ccc(OC(F)(F)F)cc3)nc12` [Example 90, 1-(2-(7-Hydroxy-3,3-dimethyl-4-(4-methylbenzo[d]oxazol-2-yl)indolin-1-yl)phenyl)-3-(4-(trifluoromethoxy)phenyl)urea]?
Answer: Ki [1]: 56.7 nM; IC50 [2]: 0.43 µM

Question: For `CC1(C)CN(c2ccccc2NC(=O)Nc2ccc(OC(F)(F)F)cc2)c2c(O)ccc(-c3nc4ccc(Cl)cc4o3)c21` [Example 91, 1-(2-(4-(6-Chlorobenzo[d]oxazol-2-yl)-7-hydroxy-3,3-dimethylindolin-1-yl)phenyl)-3-(4-(trifluoromethoxy)phenyl)urea], which Ki [1] is on record?
Answer: 65.1 nM

Question: What about the IC50 [2] of the same compound?
Answer: 0.33 µM

Question: Which results are given for `CC1(C)CN(c2ccccc2NC(=O)Nc2ccc(OC(F)(F)F)cc2)c2c(O)ccc(-c3nc4ccc(F)cc4o3)c21` [Example 92, 1-(2-(4-(6-Fluorobenzo[d]oxazol-2-yl)-7-hydroxy-3,3-dimethylindolin-1-yl)phenyl)-3-(4-(trifluoromethoxy)phenyl)urea]?
Answer: Ki [1]: 36.6 nM; IC50 [2]: 0.2 µM

Question: `Cc1cccc2nc(-c3ccc(O)c4c3C(C)(C)CN4c3ccccc3NC(=O)Nc3ccc(OC(F)(F)F)cc3)oc12` [Example 93, 1-(2-(7-Hydroxy-3,3-dimethyl-4-(7-methylbenzo[d]oxazol-2-yl)indolin-1-yl)phenyl)-3-(4-(trifluoromethoxy)phenyl)urea] was tested. Which Ki [1] did it give?
Answer: 52 nM

Question: And the IC50 [2]?
Answer: 0.8 µM

Question: `COc1ccc2nc(-c3ccc(O)c4c3C(C)(C)CN4c3ccccc3NC(=O)Nc3ccc(OC(F)(F)F)cc3)oc2c1` [Example 94, 1-(2-(7-Hydroxy-4-(6-methoxybenzo[d]oxazol-2-yl)-3,3-dimethylindolin-1-yl)phenyl)-3-(4-(trifluoromethoxy)phenyl)urea] was tested. Which Ki [1] did it give?
Answer: 39.5 nM

Question: What about the IC50 [2] of the same compound?
Answer: 0.48 µM

Question: `Cc1ccc2nc(-c3ccc(O)c4c3C(C)(C)CN4c3ccccc3NC(=O)Nc3ccc(OC(F)(F)F)cc3)oc2c1` [Example 95, 1-(2-(7-Hydroxy-3,3-dimethyl-4-(6-methylbenzo[d]oxazol-2-yl)indolin-1-yl)phenyl)-3-(4-(trifluoromethoxy)phenyl)-urea] was tested. Which Ki [1] did it give?
Answer: 33.3 nM

Question: What about the IC50 [2] of the same compound?
Answer: 0.46 µM

Question: What does the source list for `CC1(C)CN(c2ccccc2NC(=O)Nc2ccc(OC(F)(F)F)cc2)c2c(O)ccc(-c3nc4cnccc4o3)c21` [Example 96, 1-(2-(7-Hydroxy-3,3-dimethyl-4-(oxazolo[4,5-c]pyridin-2-yl)indolin-1-yl)phenyl)-3-(4-(trifluoromethoxy)phenyl)urea]?
Answer: Ki [1]: 22.2 nM; IC50 [2]: 2.99 µM

Question: What does the source list for `Cc1noc(-c2ccc(O)c3c2C(C)(C)CN3c2ccccc2NC(=O)Nc2ccc(OC(F)(F)F)cc2)n1` [Example 97, 1-(2-(7-Hydroxy-3,3-dimethyl-4-(3-methyl-1,2,4-oxadiazol-5-yl)indolin-1-yl)phenyl)-3-(4-(trifluoromethoxy)phenyl)urea]?
Answer: Ki [1]: 20.7 nM; IC50 [2]: 1.52 µM

Question: What does the source list for `CC1(C)CN(c2ccccc2NC(=O)Nc2ccc(OC(F)(F)F)cc2)c2c(O)ccc(-c3nc4cc(F)c(F)cc4o3)c21` [Example 99, 1-(2-(4-(5,6-Difluorobenzo[d]oxazol-2-yl)-7-hydroxy-3,3-dimethylindolin-1-yl)phenyl)-3-(4-(trifluoromethoxy)phenyl)urea]?
Answer: Ki [1]: 28.1 nM; IC50 [2]: 0.89 µM

Question: Which Ki [1] does the source give for `CC1(C)CN(c2ccccc2NC(=O)Nc2nc3ccc(F)cc3s2)c2c(O)ccc(-c3nc4cc(Cl)ccc4s3)c21` [Example 100, 1-(2-(4-(5-Chlorobenzo[d]thiazol-2-yl)-7-hydroxy-3,3-dimethylindolin-1-yl)phenyl)-3-(6-fluorobenzo[d]thiazol-2-yl)urea] here?
Answer: 38.4 nM

Question: What about the IC50 [2] of the same compound?
Answer: 0.27 µM

Question: With `CC1(C)CN(c2ccccc2NC(=O)Nc2nc3ccc(F)cc3s2)c2c(O)ccc(-c3nc4ccc(F)cc4o3)c21` [Example 101, 1-(2-(4-(6-Fluorobenzo[d]oxazol-2-yl)-7-hydroxy-3,3-dimethylindolin-1-yl)phenyl)-3-(6-fluorobenzo[d]thiazol-2-yl)urea] as the compound, how does the Ki [1] read?
Answer: 31.9 nM

Question: What about the IC50 [2] of the same compound?
Answer: 0.67 µM

Question: With `Cc1cnc2oc(-c3ccc(O)c4c3C(C)(C)CN4c3ccccc3NC(=O)Nc3ccc(OC(F)(F)F)cc3)nc2c1` [Example 102, 1-(2-(7-Hydroxy-3,3-dimethyl-4-(6-methyloxazolo[5,4-b]pyridin-2-yl)indolin-1-yl)phenyl)-3-(4-(trifluoromethoxy)phenyl)urea] as the compound, how does the Ki [1] read?
Answer: 11.2 nM

Question: What about the IC50 [2] of the same compound?
Answer: 0.97 µM
